# Laboratory results published in patent US10414754B2, “Indolizine compounds, a process for their preparation and pharmaceutical compositions containing them” (LES LABORATOIRES SERVIER, priority 2013, dated 2019).
# Where a name gives a salt, the structure may show the parent alone.
# Experiments:
# [1] = test system: RS4;11 leukaemia tumour line; test: In vitro cytotoxicity (MTT) on RS4;11; assay type: cell-based; settings: Homo sapiens; RS4;11 cells, 48 hours exposure
# Protocol: The cytotoxicity studies were carried out on the RS4;11 leukaemia tumour line.
# The cells are distributed onto microplates and exposed to the test compounds for 48 hours.
# The cell viability is then quantified by a colorimetric assay, the Microculture Tetrazolium Assay (Cancer Res., 1987, 47, 939-942).
# Bcl-2 protein = target: T1, Bcl-2 protein (histag-Bcl-2, UniProtKB P10415) (Homo sapiens, UniProt P10415); test: Inhibition of Bcl-2 by the fluorescence polarisation technique; assay type: binding; settings: fluorescence polarisation, 2 hours incubation; read-out: IC50 (nM) Bcl-2 FP
# T1 construct: His tag
# Protocol: The fluorescence polarisation tests were carried out on microplates (384 wells). The Bcl-2 protein, labelled (histag-Bcl-2 such that Bcl-2 corresponds to the UniProtKB® primary accession number: P10415), at a final concentration of 2.50×10^−8 M, is mixed with a fluorescent peptide (Fluorescein-[…]), at a final concentration of 1.00×10^−8M in a buffer solution (Hepes 10 mM, NaCl 150 mM, Tween20 0.05%, pH 7.4), in the presence or absence of increasing concentrations of test compounds. After incubation for 2 hours, the fluorescence polarisation is measured.
# T1 sequence (P10415 whole entry): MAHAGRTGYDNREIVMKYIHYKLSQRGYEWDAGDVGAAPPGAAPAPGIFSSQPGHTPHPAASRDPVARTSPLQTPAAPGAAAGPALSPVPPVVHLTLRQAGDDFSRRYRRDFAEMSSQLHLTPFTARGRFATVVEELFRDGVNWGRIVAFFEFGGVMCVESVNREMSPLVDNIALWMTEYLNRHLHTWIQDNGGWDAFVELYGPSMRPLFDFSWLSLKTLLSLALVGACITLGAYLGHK
SMILES,IC50 [1],IC50 (Bcl-2 protein)
"C[C@@H]1Cc2ccccc2CN1C(=O)c1cc2c(cc1-c1cc(C(=O)N(c3ccc(O)cc3)c3ccc4c(ccn4C)c3)c3n1CCCC3)OCO2 [Example 1, N-(4-Hydroxyphenyl)-3-(6-{[(3R)-3-methyl-3,4-dihydroisoquinolin-2(1H)-yl]carbonyl}-1,3-benzodioxol-5-yl)-N-(1-methyl-1H-indol-5-yl)-5,6,7,8-tetrahydro-indolizine-1-carboxamide]",11.3 nM,17.9 nM
"C[C@@H]1Cc2ccccc2CN1C(=O)c1cc2c(cc1-c1cc(C(=O)N(c3ccc(O)cc3)c3ccc4c(ccn4CCN4CCOCC4)c3)c3n1CCCC3)OCO2 [Example 2, N-(4-Hydroxyphenyl)-3-(6-{[(3R)-3-methyl-3,4-dihydroisoquinolin-2(1H)-yl]carbonyl}-1,3-benzodioxol-5-yl)-N-{1-[2-(morpholin-4-yl)ethyl]-1H-indol-5-yl}-5,6,7,8-tetrahydroindolizine-1-carboxamide hydrochloride]",36 nM,17 nM
"C[C@@H]1Cc2ccccc2CN1C(=O)c1ccc(Cl)cc1-c1cc(C(=O)N(c2ccc(O)cc2)c2ccc3c(ccn3C)c2)c2n1CCNC2 [Example 3, 6-(5-Chloro-2-{[(3R)-3-methyl-3,4-dihydroisoquinolin-2(1H)-yl]-carbonyl}phenyl)-N-(4-hydroxyphenyl)-N-(1-methyl-1H-indol-5-yl)-1,2,34-tetrahydropyrrolo[1,2-a]pyrazine-8-carboxamide hydrochloride]",66.5 nM,33.6 nM
"O=C(c1ccc(Cl)cc1-c1cc(C(=O)N(c2ccc(O)cc2)c2ccc3c(ccn3CCN3CCOCC3)c2)c2n1CCCC2)N1CCc2ccccc2C1 [Example 4, 3-[5-Chloro-2-(3,4-dihydroisoquinolin-2(1H)-ylcarbonyl)phenyl]-N-(4-hydroxyphenyl)-N-{1-[2-(morpholin-4-yl)ethyl]-1H-indol-5-yl}-5,6,7,8-tetrahydro-indolizine-1-carboxamide]",251 nM,56.4 nM
"O=C(c1ccc(Cl)cc1-c1cc(C(=O)N(c2ccc(O)cc2)c2ccc3c(c2)CCN3CCN2CCOCC2)c2n1CCCC2)N1CCc2ccccc2C1 [Example 5, 3-[5-Chloro-2-(3,4-dihydroisoquinolin-2(1H)-ylcarbonyl)phenyl]-N-(4-hydroxyphenyl)-N-{1-[2-(morpholin-4-yl)ethyl]-2,3-dihydro-1H-indol-5-yl}-5,6,7,8-tetrahydroindolizine-1-carboxamide]",416 nM,55.9 nM
"C[C@@H]1Cc2ccccc2CN1C(=O)c1cc2c(cc1-c1cc(C(=O)N(c3ccc(O)cc3)c3ccc4c(ccn4C)c3)c3n1CCN(C)C3)OCCO2 [Example 6, N-(4-Hydroxyphenyl)-2-methyl-6-(7-{[(3R)-3-methyl-3,4-dihydroiso-quinolin-2(1H)-yl]carbonyl}-2,3-dihydro-1,4-benzodioxin-6-yl)-N-(1-methyl-1H-indol-5-yl)-1,2,3,4-tetrahydropyrrolo[1,2-a]pyrazine-8-carboxamide hydrochloride]",161 nM,60.3 nM
"C[C@@H]1Cc2ccccc2CN1C(=O)c1ccc(Cl)cc1-c1cc(C(=O)N(c2ccc(O)cc2)c2ccc3c(ccn3C)c2)c2n1CCN(C)C2 [Example 7, 6-(5-Chloro-2-{[(3R)-3-methyl-3,4-dihydroisoquinolin-2(1H)-yl]-carbonyl}phenyl]-N-(4-hydroxyphenyl)-2-methyl-N-(1-methyl-1H-indol-5-yl)-1,2,3,4-tetrahydropyrrolo[1,2-a]pyrazine-8-carboxamide]",108 nM,46.4 nM
"C[C@@H]1Cc2ccccc2CN1C(=O)c1ccc(Cl)cc1-c1cc(C(=O)N(c2ccc(O)cc2)c2ccc3c(ccn3CCN3CCOCC3)c2)c2ccccn12 [Example 8, 3-(5-Chloro-2-{[(3R)-3-methyl-3,4-dihydroisoquinolin-2(1H)-yl]-carbonyl}phenyl)-N-(4-hydroxyphenyl)-N-{1-[2-(morpholin-4-yl)ethyl]-1H-indol-5-yl}indolizine-1-carboxamide hydrochloride]",20.5 nM,24.5 nM
"C[C@@H]1Cc2ccccc2CN1C(=O)c1ccc(F)cc1-c1cc(C(=O)N(c2ccc(O)cc2)c2ccc(F)cc2)c2n1CCNC2 [Example 9, 6-(5-Fluoro-2-{[(3R)-3-methyl-3,4-dihydroisoquinolin-2(1H)-yl]carbonyl}-phenyl)-N-(4-fluorophenyl)-N-(4-hydroxyphenyl)-1,2,3,4-tetrahydropyrrolo[1,2-a]-pyrazine-8-carboxamide hydrochloride]",780 nM,40.6 nM
"Cc1ccc(N(C(=O)c2cc(-c3cc(F)ccc3C(=O)N3Cc4ccccc4C[C@H]3C)n3c2CNCC3)c2ccc(O)cc2)cc1F [Example 10, 6-(5-Fluoro-2-{[(3R)-3-methyl-3,4-dihydroisoquinolin-2(1H)-yl]-carbonyl}phenyl)-N-(3-fluoro-4-methylphenyl)-N-(4-hydroxyphenyl)-1,2,3,4-tetrahydropyrrolo[1,2-a]pyrazine-8-carboxamide hydrochloride]",439 nM,24.7 nM
"C[C@@H]1Cc2ccccc2CN1C(=O)c1cc2c(cc1-c1cc(C(=O)N(c3ccc(O)cc3)c3ccc4c(cnn4C)c3)c3n1CCNC3)OCO2 [Example 11, N-(4-Hydroxyphenyl)-6-(6-{[(3R)-3-methyl-3,4-dihydroisoquinolin-2(1,H)-yl]carbonyl}-1,3-benzodioxol-5-yl)-N-(1-methyl-1H-indazol-5-yl)-1,2,3,4-tetrahydropyrrolo[1,2-a]pyrazine-8-carboxamide hydrochloride]",83.7 nM,10.9 nM
"C[C@@H]1Cc2ccccc2CN1C(=O)c1ccc(Cl)cc1-c1cc(C(=O)N(c2ccc(O)cc2)c2ccc3c(cnn3C)c2)c2n1CCNC2 [Example 12, 6-(5-Chloro-2-{[(3R)-3-methyl-3,4-dihydroisoquinolin-2(1H)-yl]-carbonyl}phenyl)-N-(4-hydroxyphenyl)-N-(1-methyl-1H-indazol-5-yl)-1,2,3,4-tetrahydropyrrolo[1,2-a]pyrazine-8-carboxamide hydrochloride]",116 nM,10.4 nM
"O=C(c1cc(-c2cc3c(cc2C(=O)N2Cc4ccccc4C[C@H]2CCN2CCOCC2)OCO3)n2c1CCCC2)N(c1ccccc1)c1ccc(O)cc1 [Example 13, N-(4-Hydroxyphenyl)-3-(6-{[(3S)-3-[2-(morpholin-4-yl)ethyl]-3,4-dihydroisoquinolin-2(1H)-yl]carbonyl}-1,3-benzodioxol-5-yl)-N-phenyl-5,6,7,8-tetrahydroindolizine-1-carboxamide hydrochloride]",33.6 nM,5.8 nM
"Cn1ncc2cc(N(C(=O)c3cc(-c4cc5c(cc4C(=O)N4Cc6ccccc6C[C@H]4CCN4CCOCC4)OCO5)n4c3CCCC4)c3ccc(O)cc3)ccc21 [Example 14, N-(4-Hydroxyphenyl)-N-(1-methyl-1H-indazol-5-yl)-3-(6-{[(3S)-3-[2-(morpholin-4-yl)ethyl]-3,4-dihydroisoquinolin-2(1H)-yl]carbonyl}-1,3-benzodioxol-5-yl)-5,6,7,8-tetrahydroindolizine-1-carboxamide hydrochloride]",7.6 nM,3.7 nM
"C[C@@H]1Cc2ccccc2CN1C(=O)c1cc2c(cc1-c1cc(C(=O)N(c3ccccc3)c3ccc(O)cc3)c3n1CCC(N)C3)OCO2 (stereo partly drawn) [Example 15, 7-Amino-N-(4-hydroxyphenyl)-3-(6-{[(3R)-3-methyl-3,4-dihydroiso-quinolin-2(1H)-yl]carbonyl}-1,3-benzodioxol-5-yl)-N-phenyl-5,6,7,8-tetrahydro-indolizine-1-carboxamide hydrochloride]",166 nM,5.7 nM
"O=C(c1cc(-c2cc3c(cc2C(=O)N2Cc4ccccc4C[C@H]2CO)OCO3)n2c1CCCC2)N(c1ccccc1)c1ccc(O)cc1 [Example 16, 3-(6-{[(3S)-3-(Hydroxymethyl)-3,4-dihydroisoquinolin-2(1H)-yl]-carbonyl}-1,3-benzodioxol-5-yl)-N-(4-hydroxyphenyl)-N-phenyl-5,6,7,8-tetrahydro-indolizine-1-carboxamide]",252 nM,7.5 nM
"C[C@@H]1Cc2ccccc2CN1C(=O)c1cc2c(cc1-c1cc(C(=O)N(c3ccc(O)cc3)c3cc[n+](C)cc3)c3ccccn13)OCO2 [Example 71, 4-[(4-Hydroxyphenyl){[3-(6-{[(3R)-3-methyl-3,4-dihydroisoquinolin-2(1H)-yl]carbonyl}-1,3-benzodioxol-5-yl)indolizin-1-yl]carbonyl}amino]-1-methyl-pyridinium chloride]",,49 nM
"CN(C(=O)c1cc(-c2cc3c(cc2C(=O)N2CCc4ccccc4C2)OCO3)n2c1CNCC2)c1ccc(O)cc1 [Example 84, 6-[6-(3,4-Dihydroisoquinolin-2(1H)-ylcarbonyl)-1,3-benzodioxol-5-yl]-N-(4-hydroxyphenyl)-N-methyl-1,2,3,4-tetrahydropyrrolo[1,2-a]pyrazine-8-carboxamide]",,525 nM
"CCN(C(=O)c1cc(-c2cc3c(cc2C(=O)N2CCc4ccccc4C2)OCO3)n2c1CNCC2)c1ccc(O)cc1 [Example 85, 6-[6-(3,4-Dihydroisoquinolin-2(1H)-ylcarbonyl)-1,3-benzodioxol-5-yl]-N-ethyl-N-(4-hydroxyphenyl)-1,2,3,4-tetrahydropyrrolo[1,2-a]pyrazine-8-carboxamide]",,243 nM
